Experimental data: patent US10370379B2, “Compounds and compositions useful for treating disorders related to NTRK” (BLUEPRINT MEDICINES CORPORATION, priority 2015, dated 2019)
Like-named read-outs stand apart in the source and are kept apart here.

Key:
wild type NTRK1 enzyme = wild type NTRK1 enzyme (Homo sapiens (Human), UniProt P04629); experiment: NTRK1 Wild Type Assay at 1 mM ATP; type: biochemical
Description: NTRK1 Wild Type Assay at 1 mM ATP
The reaction was stopped by the addition of 70 μL of Stop buffer (100 mM HEPES pH 7.5, 0.015% Brij 35, 35 mM EDTA and 0.2% of Coating Reagent 3 (Caliper Lifesciences)). The plate was then read on a Caliper EZReader 2 (protocol settings: −1.7 psi, upstream voltage −500, downstream voltage −3000, post sample sip 35 s).

[1] = tested on: KM12 wild type colon carcinoma cell line harboring the TPM3-NTRK1 fusion protein; experiment: NTRK wild type cellular assay (KM12, CellTiter-Glo); type: cell-based; settings: for IC50: KM12 wild type cells, 72 hr, CellTiter-Glo; for GI50: NTRK wt cellular, known NTRK inhibitors
Description: (§1) NTRK Wild Type and G595R Mutant Cellular Assays Protocol
(§2) KM12 wild type colon carcinoma cell line harboring the TPM3-NTRK1 fusion protein was obtained from the National Cancer Institute (NCI). This line has been previously shown to be dependent upon the NTRK activity derived from the NTRK fusion protein for growth and survival. […] Cells were first plated in 384-well plates at 1000 cells/well in complete media (10% FBS and 1% pen/strep) and incubated overnight at 37° C. Cells were then dosed with test articles at varying concentrations using the Bravo liquid handling system. […] Each compound was run in duplicate per plate. […] 72 hr after dosing, assay plates were developed using CellTiter-Glo (Promega) and resultant luminescence was read on the Envision plate reader. IC50 determinations were calculated using a 4-parameter curve fitting algorithm

[2] = tested on: KM12 Cliff (G595R) cell line; experiment: NTRK G595R mutant cellular assay (KM12 Cliff, CellTiter-Glo); type: cell-based; settings: for IC50: Homo sapiens, KM12 Cliff (G595R) cells, 72 hr, CellTiter-Glo
Description: as §1, §2

[3] = wild type NTRK1, 1 mM ATP, read-out: NTRK1 IC50

wild type NTRK1 enzyme, sequence (P04629 33-796): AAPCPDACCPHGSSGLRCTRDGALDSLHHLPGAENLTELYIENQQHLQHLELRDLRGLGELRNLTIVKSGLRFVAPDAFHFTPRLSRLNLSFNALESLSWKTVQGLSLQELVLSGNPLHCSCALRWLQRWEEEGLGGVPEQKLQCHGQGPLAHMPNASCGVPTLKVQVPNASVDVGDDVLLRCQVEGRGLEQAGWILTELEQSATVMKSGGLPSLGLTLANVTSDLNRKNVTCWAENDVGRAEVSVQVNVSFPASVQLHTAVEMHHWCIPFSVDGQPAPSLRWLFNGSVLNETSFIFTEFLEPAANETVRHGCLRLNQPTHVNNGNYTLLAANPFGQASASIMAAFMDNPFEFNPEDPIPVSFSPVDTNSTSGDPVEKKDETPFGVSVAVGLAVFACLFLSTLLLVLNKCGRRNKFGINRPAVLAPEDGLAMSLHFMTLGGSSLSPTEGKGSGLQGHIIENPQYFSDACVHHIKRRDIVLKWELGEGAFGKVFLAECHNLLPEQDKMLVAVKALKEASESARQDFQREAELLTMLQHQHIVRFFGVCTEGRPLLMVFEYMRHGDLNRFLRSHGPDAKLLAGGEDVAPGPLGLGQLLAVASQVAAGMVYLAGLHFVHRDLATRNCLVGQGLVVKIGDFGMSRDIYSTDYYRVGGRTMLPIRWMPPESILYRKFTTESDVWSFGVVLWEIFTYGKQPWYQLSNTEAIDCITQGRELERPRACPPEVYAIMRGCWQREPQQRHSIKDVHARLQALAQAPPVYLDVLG

Compound	IC50 (wild type NTRK1 enzyme; [3])	IC50 ([1]; Homo sapiens)	GI50 ([1]; Homo sapiens, KM12)	IC50 [2]	IC50 (wild type NTRK1 enzyme; NTRK wt, known NTRK inhibitors, read-out: NTRK wt Enzyme Assay IC50)	GI50 [1]	GI50 ([2]; NTRK G595R cellular, known NTRK inhibitors)
N#Cc1cnn2ccc(N3C[C@@H](F)C[C@@H]3c3cc(F)ccc3F)nc12 [Compound 2]	< 0.01 µM	< 0.01 µM		< 0.01 µM			
N#Cc1cnn2ccc(N3CC(F)(F)C[C@@H]3c3cncc(F)c3)nc12 [Compound 3, (R)-5-(4,4-difluoro-2-(5-fluoropyridin-3-yl)pyrrolidin-1-yl)pyrazolo[1,5-a]pyrimidine-3-carbonitrile]	0.01 to 0.1 µM	0.01 to 0.1 µM		0.1 to 1 µM			
N#Cc1cnn2ccc(N3C[C@@H](C#N)C[C@@H]3c3cc(F)ccc3F)nc12 [Compound 5, 5-((2R,4S)-4-cyano-2-(2,5-difluorophenyl)pyrrolidin-1-yl)pyrazolo[1,5-a]pyrimidine-3-carbonitrile]	0.01 to 0.1 µM	0.01 to 0.1 µM		0.1 to 1 µM			
N#Cc1cc(F)cc([C@H]2C[C@H](F)CN2c2ccn3ncc(C#N)c3n2)c1 [Compound 6, 5-((2R,4S)-2-(3-cyano-5-fluorophenyl)-4-fluoropyrrolidin-1-yl)pyrazolo[1,5-a]pyrimidine-3-carbonitrile]	< 0.01 µM	< 0.01 µM		< 0.01 µM			
COc1ncc(F)cc1[C@H]1C[C@H](F)CN1c1ccn2ncc(C#N)c2n1 [Compound 7, 5-((2R,4S)-4-fluoro-2-(5-fluoro-2-methoxypyridin-3-yl)pyrrolidin-1-yl)pyrazolo[1,5-a]pyrimidine-3-carbonitrile]	< 0.01 µM	< 0.01 µM		< 0.01 µM			
Cn1cc(F)cc([C@H]2C[C@H](F)CN2c2ccn3ncc(C#N)c3n2)c1=O [Compound 8, 5-((2R,4S)-4-fluoro-2-(5-fluoro-1-methyl-2-oxo-1,2-dihydropyridin-3-yl)pyrrolidin-1-yl)pyrazolo[1,5-a]pyrimidine-3-carbonitrile]	0.01 to 0.1 µM	0.01 to 0.1 µM		0.1 to 1 µM			
N#Cc1cnn2ccc(N3C[C@@H](F)C[C@@H]3c3cc(F)cc(Cl)c3)nc12 [Compound 9]	< 0.01 µM	< 0.01 µM		< 0.01 µM			
N#Cc1cc(F)cc([C@H]2C[C@H](F)CN2c2nc3c(C#N)cnn3cc2F)c1 [Compound 12]	< 0.01 µM	< 0.01 µM		< 0.01 µM			
COc1c(F)cc(F)cc1[C@H]1C[C@H](F)CN1c1ccn2ncc(C#N)c2n1 [Compound 13]	< 0.01 µM	< 0.01 µM		< 0.01 µM			
N#Cc1cnn2cc(F)c(N3C[C@@H](F)C[C@@H]3c3cc(F)cc(C(N)=O)c3)nc12 [Compound 15]	< 0.01 µM	0.01 to 0.1 µM		0.01 to 0.1 µM			
N#Cc1cnn2ccc(N3C[C@@H](F)C[C@@H]3c3cc(F)cc(C(=O)NCCO)c3)nc12 [Compound 18]	0.01 to 0.1 µM	0.01 to 0.1 µM		0.01 to 0.1 µM			
N#Cc1cnn2ccc(N3C[C@@H](F)C[C@@H]3c3cc(F)cc(C(=O)NCC4CC4)c3)nc12 [Compound 19]	< 0.01 µM	0.01 to 0.1 µM		0.01 to 0.1 µM			
CN(C)C(=O)c1cc(F)cc([C@H]2C[C@H](F)CN2c2ccn3ncc(C#N)c3n2)c1 [Compound 21]	0.01 to 0.1 µM	0.01 to 0.1 µM		0.1 to 1 µM			
C[C@@H](Oc1cc(-c2cnn(C3CCNCC3)c2)cnc1N)c1c(Cl)ccc(F)c1Cl [Crizotinib, reference compound]			0.087 µM				
CC(C)NC(=O)[C@H]1CC[C@@H](n2c(NC(=O)c3ccc(F)cc3)nc3ccc(CN4CCC(C(C)(C)O)CC4)cc32)CC1 [TSR-011, reference compound]					0.0023 µM	0.032 µM	12 µM

Second part, led by results:

IC50 (wild type NTRK1 enzyme; [3])	IC50 ([1]; Homo sapiens)	GI50 ([1]; Homo sapiens, KM12)	Compound	IC50 [2]	IC50 (wild type NTRK1 enzyme; NTRK wt, known NTRK inhibitors, read-out: NTRK wt Enzyme Assay IC50)	GI50 [1]	GI50 ([2]; NTRK G595R cellular, known NTRK inhibitors)
< 0.01 µM	< 0.01 µM		N#Cc1cnn2ccc(N3C[C@@H](F)C[C@@H]3c3cncc(F)c3)nc12 [Compound 1, 5-((2R,4S)-4-fluoro-2-(5-fluoropyridin-3-yl)pyrrolidin-1-yl)pyrazolo[1,5-a]pyrimidine-3-carbonitrile]	0.01 to 0.1 µM			
< 0.01 µM	< 0.01 µM		N#Cc1cnn2cc(F)c(N3C[C@@H](F)C[C@@H]3c3cncc(F)c3)nc12 [Compound 4, 6-fluoro-5-((2R,4S)-4-fluoro-2-(5-fluoropyridin-3-yl)pyrrolidin-1-yl)pyrazolo[1,5-a]pyrimidine-3-carbonitrile]	< 0.01 µM			
< 0.01 µM	< 0.01 µM		N#Cc1cnn2ccc(N3C[C@@H](F)C[C@@H]3c3cc(F)cnc3Cl)nc12 [Compound 10]	< 0.01 µM			
< 0.01 µM	< 0.01 µM		N#Cc1cnn2ccc(N3C[C@@H](F)C[C@@H]3c3cc(F)cc(C(N)=O)c3)nc12 [Compound 11]	0.01 to 0.1 µM			
0.01 to 0.1 µM	0.01 to 0.1 µM		CC(C)(O)c1cc(F)cc([C@H]2C[C@H](F)CN2c2ccn3ncc(C#N)c3n2)c1 [Compound 14, 5-((2R,4S)-4-fluoro-2-(3-fluoro-5-(2-hydroxypropan-2-yl)phenyl)pyrrolidin-1-yl)pyrazolo[1,5-a]pyrimidine-3-carbonitrile]	0.1 to 1 µM			
< 0.01 µM	0.01 to 0.1 µM		N#Cc1cnn2ccc(N3C[C@@H](F)C[C@@H]3c3cc(F)cc(S(N)(=O)=O)c3)nc12 [Compound 16]	0.01 to 0.1 µM			
< 0.01 µM	< 0.01 µM		N#Cc1cnn2ccc(N3C[C@@H](F)C[C@@H]3c3cc(F)ccc3OC(F)(F)F)nc12 [Compound 17]	< 0.01 µM			
0.01 to 0.1 µM	0.01 to 0.1 µM		CNC(=O)c1cc(F)cc([C@H]2C[C@H](F)CN2c2ccn3ncc(C#N)c3n2)c1 [Compound 20, 3-((2R,4S)-1-(3-cyanopyrazolo[1,5-a]pyrimidin-5-yl)-4-fluoropyrrolidin-2-yl)-5-fluoro-N-methylbenzamide]	0.01 to 0.1 µM			
0.01 to 0.1 µM	0.01 to 0.1 µM		N#Cc1cnn2ccc(N3C[C@@H](F)C[C@@H]3c3cc(F)ccc3C(N)=O)nc12 [Compound 22, 2-((2R,4S)-1-(3-cyanopyrazolo[1,5-a]pyrimidin-5-yl)-4-fluoropyrrolidin-2-yl)-4-fluorobenzamide]	0.1 to 1 µM			
